Drawing on paper PMC8694051 (Proceedings of the National Academy of Sciences of the …, 2021), this text covers EC50, IC50 and half-life for seven compounds.

The test system of one series is VSV-MERS. Briefly: microbe, parasite or virus in culture. Type of series: cell-based, MERS-CoV. Conditions: Middle East respiratory syndrome-related coronavirus, Calu-3, read-out: MERS VSV pseudotype Calu-3 EC50 (nM).
Series [1] has as its system VSV-SARS-CoV-2-Spike protein Pseudotype virus. Nature of the series: microbe, parasite or virus in culture. Type of series: cell-based. Conditions: Vesicular stomatitis virus, Calu-3, read-out: VSV-SARS-CoV-2 Calu-3 EC50 (nM).
In another series the target is T1, HGFA (Homo sapiens, UniProt Q04756).
T1 sequence (Q04756 373-655): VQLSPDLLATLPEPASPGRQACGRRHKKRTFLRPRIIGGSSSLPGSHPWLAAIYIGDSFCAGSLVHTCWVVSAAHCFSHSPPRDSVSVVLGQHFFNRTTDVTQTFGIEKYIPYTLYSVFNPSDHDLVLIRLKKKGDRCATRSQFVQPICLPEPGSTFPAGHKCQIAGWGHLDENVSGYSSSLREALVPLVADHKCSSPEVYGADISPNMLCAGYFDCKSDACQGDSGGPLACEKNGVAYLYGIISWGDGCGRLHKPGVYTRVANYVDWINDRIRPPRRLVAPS
Briefly: HGFA enzyme inhibition (published assays). Type of series: biochemical.

The target in the next series is T2, Matriptase (Homo sapiens, UniProt Q9Y5Y6).
T2 sequence (Q9Y5Y6 1-855): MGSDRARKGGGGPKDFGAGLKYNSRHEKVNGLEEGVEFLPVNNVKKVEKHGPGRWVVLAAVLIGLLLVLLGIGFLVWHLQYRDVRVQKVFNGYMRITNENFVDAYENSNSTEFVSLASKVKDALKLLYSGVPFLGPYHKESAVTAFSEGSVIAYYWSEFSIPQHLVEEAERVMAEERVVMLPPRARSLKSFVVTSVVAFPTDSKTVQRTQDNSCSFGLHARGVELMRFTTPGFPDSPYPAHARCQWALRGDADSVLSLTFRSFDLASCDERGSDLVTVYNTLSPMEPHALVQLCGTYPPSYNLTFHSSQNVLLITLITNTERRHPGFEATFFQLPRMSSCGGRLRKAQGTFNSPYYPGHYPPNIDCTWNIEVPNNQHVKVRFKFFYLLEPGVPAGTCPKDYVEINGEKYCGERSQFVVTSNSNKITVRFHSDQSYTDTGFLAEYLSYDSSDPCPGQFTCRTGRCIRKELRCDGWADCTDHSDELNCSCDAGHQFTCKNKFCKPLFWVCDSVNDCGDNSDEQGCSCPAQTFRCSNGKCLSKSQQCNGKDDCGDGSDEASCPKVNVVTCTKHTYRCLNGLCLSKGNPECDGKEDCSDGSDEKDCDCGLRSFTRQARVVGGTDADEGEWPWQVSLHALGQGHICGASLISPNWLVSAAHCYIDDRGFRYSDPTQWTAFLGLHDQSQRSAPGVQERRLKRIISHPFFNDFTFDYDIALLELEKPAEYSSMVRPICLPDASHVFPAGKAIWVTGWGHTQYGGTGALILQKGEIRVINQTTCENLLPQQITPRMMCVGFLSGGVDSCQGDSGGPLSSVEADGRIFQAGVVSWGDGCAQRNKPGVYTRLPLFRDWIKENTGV
Nature of the series: Matriptase enzyme inhibition (published assays). Type of series: biochemical.

The next series concerns the target Factor Xa (Homo sapiens, UniProt P00742). Briefly: Factor Xa enzyme inhibition (published assays). The format is biochemical.
For the next series, the target named is Chymase (Homo sapiens, UniProt P23946). Nature of the series: Protease profiling panel, 10-dose IC50. Type of series: biochemical.
Chymase, sequence (P23946 22-247, species assumed): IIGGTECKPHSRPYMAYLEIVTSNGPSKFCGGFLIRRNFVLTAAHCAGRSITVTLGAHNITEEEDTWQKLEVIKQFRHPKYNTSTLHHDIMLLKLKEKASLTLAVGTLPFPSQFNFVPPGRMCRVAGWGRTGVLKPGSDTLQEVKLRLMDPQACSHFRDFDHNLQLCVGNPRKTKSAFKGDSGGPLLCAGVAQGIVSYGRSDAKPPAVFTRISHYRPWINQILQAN
The target of a further series is Cathepsin G (Homo sapiens, UniProt P08311). Nature of the series: Protease profiling panel, 10-dose IC50. Type of series: biochemical.
Cathepsin G, sequence (P08311 21-255, species assumed): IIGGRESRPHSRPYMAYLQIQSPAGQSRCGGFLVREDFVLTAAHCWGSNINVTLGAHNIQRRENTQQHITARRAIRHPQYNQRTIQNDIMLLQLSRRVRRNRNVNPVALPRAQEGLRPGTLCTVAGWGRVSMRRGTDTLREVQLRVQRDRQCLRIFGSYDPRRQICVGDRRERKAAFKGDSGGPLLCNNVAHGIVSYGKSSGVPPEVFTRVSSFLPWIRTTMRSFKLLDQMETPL
The next series concerns wild-type SARS-CoV-2. Nature of the series: microbe, parasite or virus in culture. The format is cell-based. As to conditions: Severe acute respiratory syndrome coronavirus 2, Calu-3, 72 h, read-out: SARS-CoV-2 Wild-type Calu-3 IC50 (nM).
Series [2] in a line: in vitro. Conditions: human, plasma.
The target of a further series is Thrombin (Homo sapiens, UniProt P00734). Nature of the series: Thrombin enzyme inhibition (published assays). The format is biochemical.
Series [3] is described as follows: in vitro. As to conditions: mouse, plasma.
The next series addresses Caspase 7 (Homo sapiens, UniProt P55210). Nature of the series: Protease profiling panel, 10-dose IC50. Type of series: biochemical.
The target in a further series is Caspase 6 (Homo sapiens, UniProt P55212). Briefly: Protease profiling panel, 10-dose IC50. Type of series: biochemical.
Caspase 6, sequence (P55212 24-293, species assumed): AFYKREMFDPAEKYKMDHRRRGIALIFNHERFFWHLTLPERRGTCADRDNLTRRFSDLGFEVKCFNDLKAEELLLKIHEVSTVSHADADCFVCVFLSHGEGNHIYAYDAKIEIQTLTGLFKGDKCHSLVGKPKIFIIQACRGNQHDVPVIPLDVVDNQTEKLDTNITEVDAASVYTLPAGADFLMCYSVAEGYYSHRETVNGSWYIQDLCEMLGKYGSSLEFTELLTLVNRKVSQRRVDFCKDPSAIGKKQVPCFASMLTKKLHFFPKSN
For a further series, the target named is Caspase 11 (Mus musculus, UniProt P70343). Nature of the series: Protease profiling panel, 10-dose IC50. The format is biochemical.
Caspase 11, sequence (P70343 81-373): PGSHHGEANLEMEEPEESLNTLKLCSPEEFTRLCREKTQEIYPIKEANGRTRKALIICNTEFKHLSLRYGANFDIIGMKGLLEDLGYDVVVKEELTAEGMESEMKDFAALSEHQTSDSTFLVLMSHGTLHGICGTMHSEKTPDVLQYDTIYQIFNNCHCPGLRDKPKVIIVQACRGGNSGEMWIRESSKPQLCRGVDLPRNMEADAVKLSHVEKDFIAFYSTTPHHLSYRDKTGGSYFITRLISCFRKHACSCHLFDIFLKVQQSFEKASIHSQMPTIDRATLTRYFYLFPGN
In a further series the target is Caspase 2 (Homo sapiens, UniProt P42575). Briefly: Protease profiling panel, 10-dose IC50. The format is biochemical.
Caspase 2, sequence (P42575 whole entry, species assumed): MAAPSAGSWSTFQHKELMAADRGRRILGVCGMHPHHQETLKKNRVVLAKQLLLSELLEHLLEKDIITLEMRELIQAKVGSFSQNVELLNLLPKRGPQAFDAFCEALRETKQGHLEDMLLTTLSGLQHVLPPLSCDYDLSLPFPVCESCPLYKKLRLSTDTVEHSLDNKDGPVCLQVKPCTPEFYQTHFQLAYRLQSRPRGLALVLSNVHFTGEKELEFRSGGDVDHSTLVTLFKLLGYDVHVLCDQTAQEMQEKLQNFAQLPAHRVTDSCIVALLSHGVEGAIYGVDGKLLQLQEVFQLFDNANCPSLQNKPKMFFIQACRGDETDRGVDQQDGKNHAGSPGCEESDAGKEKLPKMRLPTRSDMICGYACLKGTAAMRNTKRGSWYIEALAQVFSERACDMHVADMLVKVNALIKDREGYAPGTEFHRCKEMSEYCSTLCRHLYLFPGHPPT
The next series has as its target Caspase 1 (Homo sapiens, UniProt P29466). Briefly: Protease profiling panel, 10-dose IC50. Type of series: biochemical.
A further series has as its target Caspase 4 (Homo sapiens, UniProt P49662). Nature of the series: Protease profiling panel, 10-dose IC50. Type of series: biochemical.
The next series has as its target Caspase 9 (Homo sapiens, UniProt P55211). Nature of the series: Protease profiling panel, 10-dose IC50. The format is biochemical.
A further series concerns the target Caspase 8 (Homo sapiens, UniProt Q14790). Nature of the series: Protease profiling panel, 10-dose IC50. The format is biochemical.
Another series concerns the target Caspase 5 (Homo sapiens, UniProt P51878). Briefly: Protease profiling panel, 10-dose IC50. The format is biochemical.
A further series deals with Caspase 10 (Homo sapiens, UniProt Q92851). Briefly: Protease profiling panel, 10-dose IC50. Type of series: biochemical.
Caspase 10, sequence (Q92851 220-521, species assumed): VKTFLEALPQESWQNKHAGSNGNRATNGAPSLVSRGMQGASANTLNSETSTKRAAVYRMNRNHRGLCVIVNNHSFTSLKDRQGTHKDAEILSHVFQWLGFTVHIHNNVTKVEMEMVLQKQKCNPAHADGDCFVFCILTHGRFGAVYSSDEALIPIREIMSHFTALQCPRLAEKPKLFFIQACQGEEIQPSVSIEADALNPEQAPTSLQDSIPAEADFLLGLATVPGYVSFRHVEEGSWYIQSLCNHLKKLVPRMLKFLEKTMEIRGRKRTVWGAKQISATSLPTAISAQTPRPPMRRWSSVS
A further series has as its target FVIIa (Homo sapiens, UniProt P08709). Briefly: Protease profiling panel, 10-dose IC50. The format is biochemical.
In a further series the target is Caspase 14 (Homo sapiens, UniProt P31944). Briefly: Protease profiling panel, 10-dose IC50. The format is biochemical.
Caspase 14, sequence (P31944 6-242, species assumed): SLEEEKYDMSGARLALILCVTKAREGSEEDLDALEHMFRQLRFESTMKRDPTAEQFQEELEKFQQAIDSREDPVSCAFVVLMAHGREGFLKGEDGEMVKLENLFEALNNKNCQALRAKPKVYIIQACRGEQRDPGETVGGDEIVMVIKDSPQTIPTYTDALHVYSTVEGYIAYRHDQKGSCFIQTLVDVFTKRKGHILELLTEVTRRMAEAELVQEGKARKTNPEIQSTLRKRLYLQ

pIC50: −log10 of the molar value. Residues, ends and D or L forms follow the SMILES beside them.

Factor Xa, sequence (P00742 235-488 limits assumed): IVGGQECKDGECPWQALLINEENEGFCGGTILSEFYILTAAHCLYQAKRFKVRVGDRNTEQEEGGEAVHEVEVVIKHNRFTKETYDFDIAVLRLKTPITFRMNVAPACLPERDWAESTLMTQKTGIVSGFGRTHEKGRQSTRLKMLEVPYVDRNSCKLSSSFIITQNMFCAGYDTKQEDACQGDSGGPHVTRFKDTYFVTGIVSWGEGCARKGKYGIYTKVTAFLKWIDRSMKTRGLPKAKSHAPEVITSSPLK
Factor Xa, sequence (P00742 41-179 partner limits assumed): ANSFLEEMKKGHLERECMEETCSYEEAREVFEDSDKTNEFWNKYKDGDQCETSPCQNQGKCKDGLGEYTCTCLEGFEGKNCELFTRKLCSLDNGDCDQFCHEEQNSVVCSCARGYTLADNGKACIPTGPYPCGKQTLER
Caspase 9, sequence (P55211 whole entry, species assumed): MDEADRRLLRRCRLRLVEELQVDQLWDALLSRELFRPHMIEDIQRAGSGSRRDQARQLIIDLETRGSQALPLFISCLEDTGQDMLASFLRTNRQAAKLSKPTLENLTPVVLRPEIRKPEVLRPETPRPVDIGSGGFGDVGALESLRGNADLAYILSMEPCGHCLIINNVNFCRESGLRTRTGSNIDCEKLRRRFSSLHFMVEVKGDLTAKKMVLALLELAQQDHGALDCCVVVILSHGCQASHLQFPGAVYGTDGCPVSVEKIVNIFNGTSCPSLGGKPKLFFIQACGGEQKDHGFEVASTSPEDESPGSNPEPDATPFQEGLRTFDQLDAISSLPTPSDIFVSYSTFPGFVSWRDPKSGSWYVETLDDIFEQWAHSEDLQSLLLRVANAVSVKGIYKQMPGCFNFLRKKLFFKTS
Caspase 4, sequence (P49662 81-377, species assumed): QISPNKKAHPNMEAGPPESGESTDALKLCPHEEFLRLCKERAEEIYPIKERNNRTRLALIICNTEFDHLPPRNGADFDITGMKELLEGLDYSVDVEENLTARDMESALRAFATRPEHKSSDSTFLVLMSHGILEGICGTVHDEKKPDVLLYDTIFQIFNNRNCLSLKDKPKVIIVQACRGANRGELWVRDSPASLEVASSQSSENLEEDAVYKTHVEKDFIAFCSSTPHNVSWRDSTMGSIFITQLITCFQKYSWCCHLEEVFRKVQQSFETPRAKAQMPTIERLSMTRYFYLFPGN
Caspase 7, sequence (P55210 whole entry, species assumed): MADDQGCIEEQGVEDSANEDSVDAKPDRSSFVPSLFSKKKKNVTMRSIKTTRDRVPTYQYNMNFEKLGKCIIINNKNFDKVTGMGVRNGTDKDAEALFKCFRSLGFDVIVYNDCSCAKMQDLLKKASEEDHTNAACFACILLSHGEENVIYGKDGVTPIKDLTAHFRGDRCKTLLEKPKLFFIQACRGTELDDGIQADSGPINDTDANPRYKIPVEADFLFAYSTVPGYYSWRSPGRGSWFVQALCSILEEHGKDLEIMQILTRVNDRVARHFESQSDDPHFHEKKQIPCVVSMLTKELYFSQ
Caspase 1, sequence (P29466 120-404, species assumed): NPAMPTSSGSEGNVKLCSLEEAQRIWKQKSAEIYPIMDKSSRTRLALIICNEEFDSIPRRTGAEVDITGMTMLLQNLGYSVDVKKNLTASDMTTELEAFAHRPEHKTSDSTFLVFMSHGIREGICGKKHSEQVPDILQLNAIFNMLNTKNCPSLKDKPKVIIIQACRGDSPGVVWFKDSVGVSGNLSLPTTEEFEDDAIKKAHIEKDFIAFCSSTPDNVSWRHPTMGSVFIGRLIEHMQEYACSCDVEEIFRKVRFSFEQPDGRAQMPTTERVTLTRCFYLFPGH
FVIIa, sequence (P08709 213-466 limits assumed): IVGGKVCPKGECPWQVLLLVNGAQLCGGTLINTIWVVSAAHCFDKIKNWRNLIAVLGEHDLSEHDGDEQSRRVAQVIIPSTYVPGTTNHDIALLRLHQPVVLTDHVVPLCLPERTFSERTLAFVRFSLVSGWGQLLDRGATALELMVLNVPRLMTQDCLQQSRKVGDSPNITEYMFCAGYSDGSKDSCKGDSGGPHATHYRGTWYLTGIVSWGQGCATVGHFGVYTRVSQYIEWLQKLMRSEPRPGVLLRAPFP
FVIIa, sequence (P08709 61-212 partner limits assumed): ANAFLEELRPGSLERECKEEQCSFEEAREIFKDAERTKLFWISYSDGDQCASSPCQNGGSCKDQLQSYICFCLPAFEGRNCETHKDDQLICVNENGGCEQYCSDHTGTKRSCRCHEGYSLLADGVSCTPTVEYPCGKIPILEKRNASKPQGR
Caspase 8, sequence (Q14790 217-479, species assumed): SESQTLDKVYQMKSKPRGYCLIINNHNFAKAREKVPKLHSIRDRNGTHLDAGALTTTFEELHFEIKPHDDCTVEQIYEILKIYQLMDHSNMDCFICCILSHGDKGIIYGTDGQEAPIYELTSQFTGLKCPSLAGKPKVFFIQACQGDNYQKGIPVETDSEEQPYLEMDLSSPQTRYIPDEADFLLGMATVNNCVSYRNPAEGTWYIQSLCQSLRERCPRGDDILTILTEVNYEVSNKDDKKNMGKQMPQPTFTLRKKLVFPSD
Caspase 5, sequence (P51878 137-434, species assumed): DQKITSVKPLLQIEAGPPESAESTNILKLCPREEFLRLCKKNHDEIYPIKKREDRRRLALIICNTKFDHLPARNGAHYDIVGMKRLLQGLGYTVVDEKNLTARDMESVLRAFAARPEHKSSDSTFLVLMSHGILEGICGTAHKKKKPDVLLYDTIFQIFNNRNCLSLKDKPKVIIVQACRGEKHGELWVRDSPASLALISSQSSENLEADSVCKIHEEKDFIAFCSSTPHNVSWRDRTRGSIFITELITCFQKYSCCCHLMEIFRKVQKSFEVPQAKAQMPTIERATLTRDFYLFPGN

Regarding `CN(C)C(=O)COC(=O)Cc1ccc(OC(=O)c2ccc(NC(=N)N)cc2)cc1` [Camostat, reference compound], the EC50 in the series with VSV-MERS worked out at 5 nM; in [1], 83 nM. Besides, the negative logarithm of the IC50 (pIC50) on HGFA was under 4.70; on Matriptase, 8.15; against Factor Xa it was under 4.70.
As for `CC(C)C[C@H](NC(=O)[C@@H](NC(=O)N[C@@H](Cc1ccccc1)C(=O)O)[C@@H]1CCN=C(N)N1)C(=O)N[C@H](C=O)Cc1ccccc1` [Chymostatin], the negative-log IC50 (pIC50) against Chymase was 8.00; at Cathepsin G, 5.39.
Take `CC(=O)N[C@@H](CCC(N)=O)C(=O)N[C@@H](Cc1ccccc1)C(=O)N[C@@H](CCCNC(=N)N)C(=O)c1nc2ccccc2s1` [Compound 6, Ac-QFR-kbt]: the concentration for half-maximal inhibition (IC50) with wild-type SARS-CoV-2 came to 105 nM. Also, the half-life in the series “in vitro [2]” and in the series “in vitro [3]” was over 4.82 h in each case. Also, the figures for the pIC50 at HGFA, at Thrombin and against Factor Xa were 7.85, under 4.70 and 8.85, respectively.
`CC(=O)N[C@@H](CC(=O)O)C(=O)N[C@@H](CCC(=O)O)C(=O)N[C@H](C(=O)N[C@H](C=O)CC(=O)O)C(C)C` [DEVD-CHO]: the negative-log IC50 (pIC50) on Caspase 7 was 8.64; against Caspase 6, 7.91.
`CC[C@H](C)[C@H](NC(C)=O)C(=O)N[C@@H](CCC(=O)O)C(=O)N[C@H](C(=O)N[C@H](C=O)CC(=O)O)[C@@H](C)O` [IETD-CHO] (Ac-IETD-aldehyde): the pIC50 against Caspase 11 was 6.25; on Caspase 2 it was 6.26; against Caspase 1, 7.53; against Caspase 4, 5.67; against Caspase 9, 7.58; against Caspase 8, 8.55. Also, the negative-log IC50 (pIC50) against Caspase 5 was 7.94; at Caspase 10, 8.04.
In the case of `N=C(N)c1ccc2nc(-c3cc(CC(=O)N[C@@H](CC(=O)O)C(=O)O)cc(-c4cc(S(N)(=O)=O)ccc4O)c3O)[nH]c2c1` [PCI 27483], the negative-log IC50 (pIC50) at FVIIa was 7.24.
The compound `CC(=O)N[C@@H](Cc1c[nH]c2ccccc12)C(=O)N[C@@H](CCC(=O)O)C(=O)N[C@@H](Cc1cnc[nH]1)C(=O)N[C@H](C=O)CC(=O)O` [WEHD-CHO] (Ac-WEHD-aldehyde) gave a pIC50 against Caspase 14 of 7.17.
